{
  "source": "ChEMBL document CHEMBL1134304",
  "about": "“Discovery of novel p-arylthio cinnamides as antagonists of leukocyte function-associated antigen-1/intercellular adhesion molecule-1 interaction. 4. Structure-activity relationship of substituents on the benzene ring of the cinnamide” (J Med Chem, 2001)",
  "key": {"[1]": {"target": "T1, Intercellular adhesion molecule (ICAM-1), Integrin alpha-L/beta-2 (Homo sapiens, UniProt P05107+P20701)", "T1 sequence (P05362 whole entry, one chain of several, further chain)": "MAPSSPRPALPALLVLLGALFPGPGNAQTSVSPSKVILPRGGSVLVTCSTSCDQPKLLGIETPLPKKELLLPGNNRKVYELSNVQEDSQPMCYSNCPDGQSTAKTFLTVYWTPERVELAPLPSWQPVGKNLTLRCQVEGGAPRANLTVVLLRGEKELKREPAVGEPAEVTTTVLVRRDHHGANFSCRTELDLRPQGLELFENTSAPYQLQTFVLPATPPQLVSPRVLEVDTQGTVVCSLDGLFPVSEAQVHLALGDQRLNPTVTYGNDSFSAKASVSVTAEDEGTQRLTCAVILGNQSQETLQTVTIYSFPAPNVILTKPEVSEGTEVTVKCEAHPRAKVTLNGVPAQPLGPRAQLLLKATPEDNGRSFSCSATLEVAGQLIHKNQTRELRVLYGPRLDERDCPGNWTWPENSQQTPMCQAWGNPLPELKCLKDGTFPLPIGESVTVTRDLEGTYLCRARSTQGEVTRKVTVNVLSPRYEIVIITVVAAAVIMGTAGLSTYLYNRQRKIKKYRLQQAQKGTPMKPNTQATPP", "T1 sequence (P05107 whole entry, one chain of several)": "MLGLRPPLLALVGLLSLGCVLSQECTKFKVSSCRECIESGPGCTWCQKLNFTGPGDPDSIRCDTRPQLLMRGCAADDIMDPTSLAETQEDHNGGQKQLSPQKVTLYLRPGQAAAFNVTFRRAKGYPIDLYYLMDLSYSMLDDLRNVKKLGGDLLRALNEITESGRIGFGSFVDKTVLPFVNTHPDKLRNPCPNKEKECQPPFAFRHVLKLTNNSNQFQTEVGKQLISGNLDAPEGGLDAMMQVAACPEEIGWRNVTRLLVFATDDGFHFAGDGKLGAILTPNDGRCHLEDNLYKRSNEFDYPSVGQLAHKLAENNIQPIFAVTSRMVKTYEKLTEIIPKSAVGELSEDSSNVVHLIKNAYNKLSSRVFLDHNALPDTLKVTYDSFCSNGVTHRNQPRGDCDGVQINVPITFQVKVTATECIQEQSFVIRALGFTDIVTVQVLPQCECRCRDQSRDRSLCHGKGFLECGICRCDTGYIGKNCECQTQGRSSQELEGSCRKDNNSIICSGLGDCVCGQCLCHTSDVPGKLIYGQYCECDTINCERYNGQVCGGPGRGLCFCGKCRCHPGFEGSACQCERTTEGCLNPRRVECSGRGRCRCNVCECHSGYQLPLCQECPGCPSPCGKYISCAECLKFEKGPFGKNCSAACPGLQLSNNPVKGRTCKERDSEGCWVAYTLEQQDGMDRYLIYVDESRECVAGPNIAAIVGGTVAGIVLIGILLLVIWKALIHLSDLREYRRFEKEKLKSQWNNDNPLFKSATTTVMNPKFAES"}, "Integrin alpha-L [2]": {"target": "T2, Integrin alpha-L (Homo sapiens, UniProt P20701)", "T2 sequence (P20701 whole entry)": "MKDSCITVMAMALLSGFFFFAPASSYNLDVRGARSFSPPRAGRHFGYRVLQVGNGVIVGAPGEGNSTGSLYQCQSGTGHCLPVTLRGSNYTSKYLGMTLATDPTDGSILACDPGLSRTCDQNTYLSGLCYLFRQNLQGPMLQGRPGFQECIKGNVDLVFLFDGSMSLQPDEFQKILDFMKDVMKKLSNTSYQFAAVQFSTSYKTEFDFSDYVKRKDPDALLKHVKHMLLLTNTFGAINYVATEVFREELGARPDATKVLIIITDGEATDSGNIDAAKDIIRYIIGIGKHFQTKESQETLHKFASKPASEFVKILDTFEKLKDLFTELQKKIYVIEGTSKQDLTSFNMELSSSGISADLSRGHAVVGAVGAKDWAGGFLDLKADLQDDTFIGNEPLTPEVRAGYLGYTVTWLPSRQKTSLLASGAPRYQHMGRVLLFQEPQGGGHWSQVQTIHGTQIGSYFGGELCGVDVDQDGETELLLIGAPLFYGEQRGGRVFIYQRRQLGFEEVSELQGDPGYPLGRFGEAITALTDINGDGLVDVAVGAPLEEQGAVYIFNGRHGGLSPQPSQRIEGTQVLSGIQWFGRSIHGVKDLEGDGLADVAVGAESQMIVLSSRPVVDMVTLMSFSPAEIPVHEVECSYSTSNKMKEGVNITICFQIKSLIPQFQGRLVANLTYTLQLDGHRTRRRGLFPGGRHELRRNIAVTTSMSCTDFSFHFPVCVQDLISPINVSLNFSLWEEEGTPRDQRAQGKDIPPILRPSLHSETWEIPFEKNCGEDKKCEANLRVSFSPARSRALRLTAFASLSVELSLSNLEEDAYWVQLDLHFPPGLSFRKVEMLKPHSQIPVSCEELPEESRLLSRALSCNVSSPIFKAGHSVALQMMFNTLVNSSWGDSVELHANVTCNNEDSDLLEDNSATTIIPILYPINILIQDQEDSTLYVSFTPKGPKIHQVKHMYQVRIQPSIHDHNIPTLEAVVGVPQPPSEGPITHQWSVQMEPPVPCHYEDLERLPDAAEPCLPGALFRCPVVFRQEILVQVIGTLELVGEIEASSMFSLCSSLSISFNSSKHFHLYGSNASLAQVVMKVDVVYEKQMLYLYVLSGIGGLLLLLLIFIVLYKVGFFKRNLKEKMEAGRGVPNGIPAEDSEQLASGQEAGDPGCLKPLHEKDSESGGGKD"}, "Mus musculus [3]": {"test_system": "Mus musculus", "experiment": "Inhibition of allergen induced total cell influx in mouse lung at 3 mg/kg", "format": "functional"}, "Mus musculus [4]": {"test_system": "Mus musculus", "experiment": "Inhibition of allergen induced neutrophil influx in mouse lung at 3 mg/kg", "format": "functional"}, "Mus musculus [5]": {"test_system": "Mus musculus", "experiment": "Inhibition of allergen induced total cell influx in mouse lung at 10 mg/kg", "format": "functional"}, "Mus musculus [6]": {"test_system": "Mus musculus", "experiment": "Inhibition of allergen induced neutrophil influx in mouse lung at 1 mg/kg", "format": "functional"}, "[7]": {"target": "T3, Intercellular adhesion molecule (ICAM-1), Integrin alpha-L/beta-2 (Homo sapiens) (UniProt P20701+P05362+P05107)", "conditions": "Rattus norvegicus"}, "[8]": {"target": "T3, Intercellular adhesion molecule (ICAM-1), Integrin alpha-L/beta-2 (Homo sapiens)", "conditions": "Rattus norvegicus", "remark": "listed apart in the source"}, "Mus musculus [9]": {"test_system": "Mus musculus", "experiment": "Inhibition of allergen induced neutrophil influx in mouse lung at 10 mg/kg", "format": "functional"}, "[10]": {"target": "T1, Intercellular adhesion molecule (ICAM-1), Integrin alpha-L/beta-2", "remark": "listed apart in the source"}, "Integrin alpha-L [11]": {"target": "T2, Integrin alpha-L", "remark": "listed apart in the source"}, "Mus musculus [12]": {"test_system": "Mus musculus", "experiment": "Inhibition of allergen induced total cell influx in mouse lung at 1 mg/kg", "format": "functional"}, "Integrin alpha-L [13]": {"target": "T2, Integrin alpha-L", "experiment": "Inhibition of intercellular adhesion molecule-1 (ICAM-1) binding to recombinant LFA-1, range (4-7)"}, "[14]": {"target": "T1, Intercellular adhesion molecule (ICAM-1), Integrin alpha-L/beta-2", "experiment": "Inhibition of LFA-1 mediated JY-8 cell adhesion to ICAM-1, range (2-2)", "format": "functional, cell-based"}, "Integrin alpha-L [15]": {"target": "T2, Integrin alpha-L", "experiment": "Inhibition of intercellular adhesion molecule-1 (ICAM-1) binding to recombinant LFA-1"}, "Integrin alpha-L [16]": {"target": "T2, Integrin alpha-L", "experiment": "Inhibition of intercellular adhesion molecule-1 (ICAM-1) binding to recombinant LFA-1, range (3600-5100)"}, "Integrin alpha-L [17]": {"target": "T2, Integrin alpha-L", "experiment": "Inhibition of intercellular adhesion molecule-1 (ICAM-1) binding to recombinant LFA-1, range(100-110)"}, "Integrin alpha-L [18]": {"target": "T2, Integrin alpha-L", "experiment": "Inhibition of intercellular adhesion molecule-1 (ICAM-1) binding to recombinant LFA-1, range (6-19)"}, "[19]": {"target": "T1, Intercellular adhesion molecule (ICAM-1), Integrin alpha-L/beta-2", "experiment": "Inhibition of LFA-1 mediated JY-8 cell adhesion to ICAM-1, range (3-18)", "format": "functional, cell-based"}, "Integrin alpha-L [20]": {"target": "T2, Integrin alpha-L", "experiment": "Inhibition of intercellular adhesion molecule-1 (ICAM-1) binding to recombinant LFA-1, range(30-60)"}, "[21]": {"target": "T1, Intercellular adhesion molecule (ICAM-1), Integrin alpha-L/beta-2", "experiment": "Inhibition of LFA-1 mediated JY-8 cell adhesion to ICAM-1, range (30-150)", "format": "functional, cell-based"}, "Integrin alpha-L [22]": {"target": "T2, Integrin alpha-L", "experiment": "Inhibition of intercellular adhesion molecule-1 (ICAM-1) binding to recombinant LFA-1, range (80-110)"}, "Integrin alpha-L [23]": {"target": "T2, Integrin alpha-L", "experiment": "Inhibition of intercellular adhesion molecule-1 (ICAM-1) binding to recombinant LFA-1, range (3700-3800)"}, "Integrin alpha-L [24]": {"target": "T2, Integrin alpha-L", "experiment": "Inhibition of intercellular adhesion molecule-1 (ICAM-1) binding to recombinant LFA-1, range (6-9)"}, "[25]": {"target": "T1, Intercellular adhesion molecule (ICAM-1), Integrin alpha-L/beta-2", "experiment": "Inhibition of LFA-1 mediated JY-8 cell adhesion to ICAM-1, range (2-9)", "format": "functional, cell-based"}, "Integrin alpha-L [26]": {"target": "T2, Integrin alpha-L", "remark": "listed apart in the source"}, "[27]": {"target": "T1, Intercellular adhesion molecule (ICAM-1), Integrin alpha-L/beta-2", "remark": "listed apart in the source"}, "Integrin alpha-L [28]": {"target": "T2, Integrin alpha-L", "experiment": "Inhibition of intercellular adhesion molecule-1 (ICAM-1) binding to recombinant LFA-1, range (10400-11300)"}, "Integrin alpha-L [29]": {"target": "T2, Integrin alpha-L", "remark": "listed apart in the source"}, "Integrin alpha-L [30]": {"target": "T2, Integrin alpha-L", "experiment": "Inhibition of intercellular adhesion molecule-1 (ICAM-1) binding to recombinant LFA-1, range(40-60)"}, "Integrin alpha-L [31]": {"target": "T2, Integrin alpha-L", "experiment": "Inhibition of intercellular adhesion molecule-1 (ICAM-1) binding to recombinant LFA-1, range(760-2620)"}},
  "data": [
    {"smiles": "O=C(O)C1CCN(C(=O)/C=C/c2ccc(Sc3ccc4c(c3)OCCO4)c(C(F)(F)F)c2C(F)(F)F)CC1", "values": [
      {"measurement": "IC50", "setting": "[1]", "value": 0.5, "unit": "nM"},
      {"measurement": "IC50", "setting": "Integrin alpha-L [2]", "value": 3, "unit": "nM"}
    ]},
    {"smiles": "Cn1ccc2cc(Sc3ccc(/C=C/C(=O)N4CCC(C(=O)O)CC4)c(Cl)c3Cl)ccc21", "values": [
      {"measurement": "Total cells", "setting": "Mus musculus [3]", "value": 147, "unit": "number ul-1"},
      {"measurement": "Neutrophils", "setting": "Mus musculus [4]", "value": 31, "unit": "%"},
      {"measurement": "Total cells", "setting": "Mus musculus [5]", "value": 189, "unit": "number ul-1"},
      {"measurement": "Neutrophils", "setting": "Mus musculus [6]", "value": 36, "unit": "%"},
      {"measurement": "Polymorphonuclear cells", "setting": "[7]", "value": 7.48},
      {"measurement": "Polymorphonuclear cells", "setting": "[8]", "value": 4.88},
      {"measurement": "Neutrophils", "setting": "Mus musculus [9]", "value": 30, "unit": "%"},
      {"measurement": "IC50", "setting": "[10]", "value": 4, "unit": "nM"},
      {"measurement": "IC50", "setting": "Integrin alpha-L [11]", "value": 6, "unit": "nM"},
      {"measurement": "Total cells", "setting": "Mus musculus [12]", "value": 291, "unit": "number ul-1"}
    ]},
    {"smiles": "O=C(O)C1CCN(C(=O)/C=C/c2ccc(Sc3ccc4c(c3)OCCO4)c(Cl)c2C(F)(F)F)CC1", "values": [
      {"measurement": "IC50", "setting": "Integrin alpha-L [13]", "value": 5, "unit": "nM"},
      {"measurement": "IC50", "setting": "[14]", "value": 2, "unit": "nM"}
    ]},
    {"smiles": "COc1ccccc1Sc1cc(C)c(/C=C/C(=O)N2CCC(C(=O)O)CC2)cc1Cl", "values": [
      {"measurement": "IC50", "setting": "Integrin alpha-L [15]", "value": "> 20", "unit": "µM"}
    ]},
    {"smiles": "CC(=O)N1CCN(C(=O)/C=C/c2ccc(Sc3ccc(Cl)cc3Cl)cc2)CC1", "values": [
      {"measurement": "IC50", "setting": "Integrin alpha-L [16]", "value": 4.3, "unit": "µM"}
    ]},
    {"smiles": "CC(=O)N1CCN(C(=O)/C=C/c2ccc(Sc3cccc(Cl)c3Cl)c([N+](=O)[O-])c2)CC1", "values": [
      {"measurement": "IC50", "setting": "Integrin alpha-L [17]", "value": 105, "unit": "nM"}
    ]},
    {"smiles": "CC(C)c1ccccc1Sc1ccc(/C=C/C(=O)N2CCC(C(=O)O)CC2)c(Cl)c1Cl", "values": [
      {"measurement": "IC50", "setting": "Integrin alpha-L [18]", "value": 10, "unit": "nM"},
      {"measurement": "IC50", "setting": "[19]", "value": 6, "unit": "nM"}
    ]},
    {"smiles": "CC(=O)N1CCN(C(=O)/C=C/c2ccc(Sc3ccc4c(c3)OCCO4)c(Cl)c2)CC1", "values": [
      {"measurement": "IC50", "setting": "Integrin alpha-L [20]", "value": 40, "unit": "nM"},
      {"measurement": "IC50", "setting": "[21]", "value": 80, "unit": "nM"}
    ]},
    {"smiles": "COc1ccccc1Sc1ccc(/C=C/C(=O)N2CCOCC2)c(C)c1C", "values": [
      {"measurement": "IC50", "setting": "Integrin alpha-L [22]", "value": 90, "unit": "nM"}
    ]},
    {"smiles": "CC(=O)N1CCN(C(=O)/C=C/c2ccc(Sc3cccc(Cl)c3Cl)c(S(=O)(=O)N(C)C)c2)CC1", "values": [
      {"measurement": "IC50", "setting": "Integrin alpha-L [23]", "value": 3.75, "unit": "µM"}
    ]},
    {"smiles": "O=C(O)C1CCN(C(=O)/C=C/c2ccc(Sc3ccc4c(c3)OCCO4)c(Cl)c2Cl)CC1", "values": [
      {"measurement": "IC50", "setting": "Integrin alpha-L [24]", "value": 7, "unit": "nM"},
      {"measurement": "IC50", "setting": "[25]", "value": 6, "unit": "nM"}
    ]},
    {"smiles": "COc1ccccc1Sc1ccc(/C=C/C(=O)N2CCC(C(=O)O)CC2)c(C(F)(F)F)c1C(F)(F)F", "values": [
      {"measurement": "IC50", "setting": "Integrin alpha-L [26]", "value": 5, "unit": "nM"},
      {"measurement": "IC50", "setting": "[27]", "value": 0.1, "unit": "nM"}
    ]},
    {"smiles": "COc1ccccc1Sc1ccc(/C=C/C(=O)N2CCN(C(C)=O)CC2)cc1OC", "values": [
      {"measurement": "IC50", "setting": "Integrin alpha-L [28]", "value": 10.7, "unit": "µM"}
    ]},
    {"smiles": "CC(C)c1ccccc1SC1=CC=C(/C=C/C(=O)N2CCC(C(=O)O)CC2)C(F)C1F", "note": "(configuration not stated)", "values": [
      {"measurement": "IC50", "setting": "Integrin alpha-L [29]", "value": 115, "unit": "nM"}
    ]},
    {"smiles": "COc1ccccc1Sc1cc(C)c(/C=C/C(=O)N2CCC(C(=O)O)CC2)cc1[N+](=O)[O-]", "values": [
      {"measurement": "IC50", "setting": "Integrin alpha-L [15]", "value": "> 20", "unit": "µM"}
    ]},
    {"smiles": "O=C(O)C1CCN(C(=O)/C=C/c2ccc(Sc3ccc4c(c3)OCCO4)c(C(F)(F)F)c2)CC1", "values": [
      {"measurement": "IC50", "setting": "Integrin alpha-L [30]", "value": 50, "unit": "nM"}
    ]},
    {"smiles": "COc1ccccc1Sc1ccc(/C=C/C(=O)N2CCC(C(=O)O)CC2)c(Cl)c1", "values": [
      {"measurement": "IC50", "setting": "Integrin alpha-L [31]", "value": 1400, "unit": "nM"}
    ]}
  ]
}
